From US11459315B2, “Modulators of methyl modifying enzymes, compositions and uses thereof” (Constellation Pharmaceuticals, Inc., priority 2017, dated 2022)
Where two headings read alike, the source gives them in different places.

Legend:
[1] = test system: H3K27me3 mark in HeLa cells (EZH2); test: H3K27me3 Alpha Hela Assay (AlphaLISA); format: cell-based; details: HeLa cells, 72 hrs, read-out: EZH2 Cell H3K27me3 Alpha HeLa (EC50 K27me3)
Outline: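 HeLa cells (1,000/well) treated with ten 3-fold compound doses for 72 h at 37 °C; lysates extracted and H3K27me3 detected by AlphaLISA with anti-K27me3 acceptor beads, biotinylated anti-H3 (3 nM) and streptavidin donor beads. EC50 from DMSO-normalized dose-response curves; duplicate plate assessed viability.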

[2] = target: PRC2 containing wt EZH2 (Homo sapiens (Human), UniProt Q15910); test: EZH2 biochemical assay (IC50), 3H-SAM incorporation into biotinylated H3 peptide
Outline: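 The PRC2 pentamer with wt EZH2 (30 pM) was pre-incubated for 3-5 h with 450 nM SAM plus 450 nM ³H-SAM, 2 µM H3K27me3 activating peptide and compound (0.8% DMSO) in Tris at pH 8.5. Biotinylated H3K27me1 peptide was added and the reaction ran 18-22 h at RT. Incorporated ³H was captured on streptavidin plates, and IC50 was taken from a four-parameter fit.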

[3] = 30 pM PRC2 containing wt EZH2; 3-5 h pre-incubation; read-out: EZH2 (IC50)
[4] = EZH2 (IC50), 30 pM PRC2 containing wt EZH2; 3-5 h pre-incubation
[5] = read-out: EZH2 (IC50); 30 pM PRC2 containing wt EZH2; 3-5 h pre-incubation

Chain of PRC2 containing wt EZH2 (Q15910 whole entry): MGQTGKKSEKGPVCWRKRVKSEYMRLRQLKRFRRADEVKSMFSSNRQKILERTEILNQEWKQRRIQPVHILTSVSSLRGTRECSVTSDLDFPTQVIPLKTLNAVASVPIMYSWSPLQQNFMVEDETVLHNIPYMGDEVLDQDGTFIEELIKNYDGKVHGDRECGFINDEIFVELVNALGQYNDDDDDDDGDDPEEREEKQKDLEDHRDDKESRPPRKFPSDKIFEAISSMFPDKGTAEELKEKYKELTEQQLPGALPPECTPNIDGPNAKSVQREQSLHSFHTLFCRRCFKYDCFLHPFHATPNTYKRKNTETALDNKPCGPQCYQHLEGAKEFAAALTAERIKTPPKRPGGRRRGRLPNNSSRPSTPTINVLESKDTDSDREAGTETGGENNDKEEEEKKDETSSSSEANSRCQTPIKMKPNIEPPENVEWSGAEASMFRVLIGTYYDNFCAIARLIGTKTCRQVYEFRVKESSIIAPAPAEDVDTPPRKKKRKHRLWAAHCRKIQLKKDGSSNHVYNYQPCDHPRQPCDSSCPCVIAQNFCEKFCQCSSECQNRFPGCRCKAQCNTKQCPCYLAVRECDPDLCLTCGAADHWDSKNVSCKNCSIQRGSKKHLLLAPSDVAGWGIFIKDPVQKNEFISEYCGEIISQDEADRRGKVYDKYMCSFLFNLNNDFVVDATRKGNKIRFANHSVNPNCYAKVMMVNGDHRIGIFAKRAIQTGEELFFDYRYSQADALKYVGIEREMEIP
Chain of PRC2 containing wt EZH2 (O75530 whole entry partner): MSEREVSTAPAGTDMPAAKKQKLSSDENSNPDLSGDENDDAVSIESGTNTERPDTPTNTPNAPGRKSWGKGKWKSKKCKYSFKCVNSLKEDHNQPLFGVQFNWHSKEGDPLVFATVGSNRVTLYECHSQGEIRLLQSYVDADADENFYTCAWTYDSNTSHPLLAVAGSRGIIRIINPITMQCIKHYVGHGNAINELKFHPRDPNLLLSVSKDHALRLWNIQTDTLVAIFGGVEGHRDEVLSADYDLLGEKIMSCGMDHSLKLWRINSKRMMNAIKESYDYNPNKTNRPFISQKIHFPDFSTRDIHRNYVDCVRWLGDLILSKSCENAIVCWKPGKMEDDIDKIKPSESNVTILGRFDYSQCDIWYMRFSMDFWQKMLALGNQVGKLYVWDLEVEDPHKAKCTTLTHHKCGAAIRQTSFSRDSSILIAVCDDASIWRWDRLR
Chain of PRC2 containing wt EZH2 (Q15022 whole entry partner): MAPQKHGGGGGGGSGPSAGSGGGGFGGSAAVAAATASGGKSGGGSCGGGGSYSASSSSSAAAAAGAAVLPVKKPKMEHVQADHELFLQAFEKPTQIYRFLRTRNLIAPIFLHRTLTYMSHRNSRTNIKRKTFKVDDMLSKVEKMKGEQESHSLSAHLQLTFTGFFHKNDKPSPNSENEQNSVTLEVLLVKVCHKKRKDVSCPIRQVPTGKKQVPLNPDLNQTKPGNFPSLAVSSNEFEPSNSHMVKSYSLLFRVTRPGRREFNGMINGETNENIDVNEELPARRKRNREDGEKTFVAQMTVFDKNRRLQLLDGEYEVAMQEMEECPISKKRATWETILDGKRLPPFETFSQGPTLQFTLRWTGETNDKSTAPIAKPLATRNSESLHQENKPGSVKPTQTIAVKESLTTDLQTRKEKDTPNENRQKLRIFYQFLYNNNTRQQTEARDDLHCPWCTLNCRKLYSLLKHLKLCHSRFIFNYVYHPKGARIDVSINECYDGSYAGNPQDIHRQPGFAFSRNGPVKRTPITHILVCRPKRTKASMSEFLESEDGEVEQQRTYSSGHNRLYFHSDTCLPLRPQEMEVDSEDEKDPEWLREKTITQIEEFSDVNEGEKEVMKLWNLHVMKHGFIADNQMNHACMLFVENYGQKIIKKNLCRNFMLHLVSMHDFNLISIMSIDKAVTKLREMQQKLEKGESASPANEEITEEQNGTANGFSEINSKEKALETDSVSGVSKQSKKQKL
Chain of PRC2 containing wt EZH2 (Q09028 whole entry partner): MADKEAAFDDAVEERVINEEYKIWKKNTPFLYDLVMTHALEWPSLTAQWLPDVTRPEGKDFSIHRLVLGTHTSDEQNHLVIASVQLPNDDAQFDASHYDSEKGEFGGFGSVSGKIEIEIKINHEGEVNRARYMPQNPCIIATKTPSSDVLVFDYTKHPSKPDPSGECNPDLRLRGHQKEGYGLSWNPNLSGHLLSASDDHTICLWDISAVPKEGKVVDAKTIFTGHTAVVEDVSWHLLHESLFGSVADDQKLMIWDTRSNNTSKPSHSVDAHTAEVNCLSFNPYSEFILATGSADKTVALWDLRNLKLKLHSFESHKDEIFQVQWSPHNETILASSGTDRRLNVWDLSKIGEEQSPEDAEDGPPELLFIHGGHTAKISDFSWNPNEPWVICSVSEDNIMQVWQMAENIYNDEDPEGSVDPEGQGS
Chain of PRC2 containing wt EZH2 (Q6ZN18 whole entry partner): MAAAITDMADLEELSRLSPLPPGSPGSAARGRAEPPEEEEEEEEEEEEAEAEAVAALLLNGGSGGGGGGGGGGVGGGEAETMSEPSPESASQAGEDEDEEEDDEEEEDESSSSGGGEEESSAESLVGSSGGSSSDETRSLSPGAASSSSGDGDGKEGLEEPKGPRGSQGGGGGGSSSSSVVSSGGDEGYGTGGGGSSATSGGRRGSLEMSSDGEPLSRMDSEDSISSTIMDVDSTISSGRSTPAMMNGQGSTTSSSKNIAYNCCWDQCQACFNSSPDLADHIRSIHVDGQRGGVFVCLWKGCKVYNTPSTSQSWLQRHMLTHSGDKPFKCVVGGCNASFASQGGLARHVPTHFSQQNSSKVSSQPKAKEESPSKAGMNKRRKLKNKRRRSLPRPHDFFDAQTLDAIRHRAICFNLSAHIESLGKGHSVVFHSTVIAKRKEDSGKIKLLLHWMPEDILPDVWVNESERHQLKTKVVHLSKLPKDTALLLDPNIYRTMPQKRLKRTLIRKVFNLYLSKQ

Structure (SMILES)	EC50 ([1]; Homo sapiens, HeLa, 72 h) [nM]	IC50 [2, 3] [nM]	EC50 [1] [nM]	IC50 [2, 4] [nM]	IC50 [2, 5] [nM]
CSc1cc(C)[nH]c(=O)c1CNC(=O)c1c(C)n([C@H](C)C2OCC(NC(C)(C)C)CO2)c2ccccc12 (single isomer, unassigned) [5 (isomer 1)]	10 to 100	0.5 to 5			
CSc1cc(C)[nH]c(=O)c1CNC(=O)c1c(C)n([C@H](C)C2CCC(N3CC(C(F)F)C3)CC2)c2ncccc12 (stereo partly drawn) [Example 96, 1-((R)-1-(4-(3-(difluoromethyl)azetidin-1-yl)cyclohexyl)ethyl)-2-methyl-N-((6-methyl-4-(methylthio)-2-oxo-1,2-dihydropyridin-3-yl)methyl)-1H-pyrrolo[2,3-b]pyridine-3-carboxamide]	< 10	< 0.5			
CSc1cc(C)[nH]c(=O)c1CNC(=O)c1c(C)n([C@H](C)C2CCC(N3CC(OC4CC4)C3)CC2)c2ncc(F)cc12 (single isomer, unassigned) [28 (isomer 2)]		< 0.5	10 to 100		
COCCN(C)C1COC([C@@H](C)n2c(C)c(C(=O)NCc3c(SC)cc(C)[nH]c3=O)c3ccccc32)OC1 (single isomer, unassigned) [16 (isomer 2)]		> 5	> 100		
CSc1cc(C)[nH]c(=O)c1CNC(=O)c1c(C)n([C@H](C)C2CCC(N3CC(OC(F)F)C3)CC2)c2ncc(C)cc12 (stereo partly drawn) [Example 115, 1-((R)-1-(4-(3-(difluoromethoxy)azetidin-1-yl)cyclohexyl)ethyl)-2,5-dimethyl-N-((6-methyl-4-(methylthio)-2-oxo-1,2-dihydropyridin-3-yl)methyl)-1H-pyrrolo[2,3-b]pyridine-3-carboxamide]	< 10	< 0.5			
CSc1cc(C)[nH]c(=O)c1CNC(=O)c1c(C)n([C@H](C)C2CCOCC2)c2ccccc12 [Example 13, (R)-2-methyl-N-((6-methyl-4-(methylthio)-2-oxo-1,2-dihydropyridin-3-yl)methyl)-1-(1-(tetrahydro-2H-pyran-4-yl)ethyl)-1H-indole-3-carboxamide]	< 10			< 0.5	
CSc1cc(C)[nH]c(=O)c1CNC(=O)c1c(C)n([C@H](C)C2CCC(N3CCC(OC4CC4)C3)CC2)c2ncccc12 (stereo partly drawn) [Example 111, 1-((1R)-1-(4-(3-cyclopropoxypyrrolidin-1-yl)cyclohexyl)ethyl)-2-methyl-N-((6-methyl-4-(methylthio)-2-oxo-1,2-dihydropyridin-3-yl)methyl)-1H-pyrrolo[2,3-b]pyridine-3-carboxamide]	10 to 100	< 0.5			
CNC1COC([C@@H](C)n2c(C)c(C(=O)NCc3c(SC)cc(C)[nH]c3=O)c3ccccc32)OC1 (stereo partly drawn) [Example 17, (R)-2-methyl-N-((6-methyl-4-(methylthio)-2-oxo-1,2-dihydropyridin-3-yl)methyl)-1-(1-(5-(methylamino)-1,3-dioxan-2-yl)ethyl)-1H-indole-3-carboxamide]	< 10	< 0.5			
CSc1cc(C)[nH]c(=O)c1CNC(=O)c1c(C)n([C@H](C)C2CCC(C)(O)CC2)c2ccccc12 (single isomer, unassigned) [22 (isomer 2)]			< 10		< 0.5
CSc1cc(C)[nH]c(=O)c1CNC(=O)c1c(C)n([C@H](C)C2CCC(OC3CN(C)C3)CC2)c2ncccc12 (single isomer, unassigned) [145 (isomer 1)]	> 100			0.5 to 5	
COC[C@@H](C)n1c(C)c(C(=O)NCc2c(SC)cc(C)[nH]c2=O)c2ccccc21 [Example 32, (R)-1-(1-methoxypropan-2-yl)-2-methyl-N-((6-methyl-4-(methylthio)-2-oxo-1,2-dihydropyridin-3-yl)methyl)-1H-indole-3-carboxamide]	10 to 100			< 0.5	
CSc1cc(C)[nH]c(=O)c1CNC(=O)c1c(C)n([C@H](C)C2CCC(NC3(CF)COC3)CC2)c2ncccc12 (single isomer, unassigned) [155 (isomer 1)]	< 10	< 0.5			
CSc1cc(C)[nH]c(=O)c1CNC(=O)c1c(C)n([C@H](C)C2CCC(O)CC2)c2ncc(Cl)cc12 (single isomer, unassigned) [53 (isomer 1)]	10 to 100			< 0.5	
COCCOC1CCC([C@@H](C)n2c(C)c(C(=O)NCc3c(SC)cc(C)[nH]c3=O)c3ccccc32)CC1 (single isomer, unassigned) [67 (isomer 2)]			< 10	< 0.5	
CSc1cc(C)[nH]c(=O)c1CNC(=O)c1c(C)n([C@H](C)[C@H]2CC[C@H](NC3(C)COC3)CC2)c2ccccc12 (single isomer, unassigned) [1 (isomer 2)]		< 0.5	10 to 100		
CSc1cc(C)[nH]c(=O)c1CNC(=O)c1c(C)n([C@H](C)C2CCC(NC3COC3)CC2)c2ncncc12 (stereo partly drawn) [Example 63, 6-methyl-N-((6-methyl-4-(methylthio)-2-oxo-1,2-dihydropyridin-3-yl)methyl)-7-((R)-1-(4-(oxetan-3-ylamino)cyclohexyl)ethyl)-7H-pyrrolo[2,3-d]pyrimidine-5-carboxamide]	10 to 100	< 0.5			
COC1CN(C2CCC([C@@H](C)n3c(C)c(C(=O)NCc4c(SC)cc(C)[nH]c4=O)c4cccnc43)CC2)C1 (single isomer, unassigned) [76 (isomer 1)]			< 10	< 0.5	
CSc1cc(C)[nH]c(=O)c1CNC(=O)c1c(C)n([C@H](C)C2CCC(O)CC2)c2cc(F)ccc12 (single isomer, unassigned) [44 (isomer 2)]			< 10		< 0.5
COC1CC(N2CC[C@H]([C@@H](C)n3c(C)c(C(=O)NCc4c(SC)cc(C)[nH]c4=O)c4ccccc43)[C@H](F)C2)C1 (stereo partly drawn) [Example 153, 1-((R)-1-((3S,4R)-3-fluoro-1-(3-methoxycyclobutyl)piperidin-4-yl)ethyl)-2-methyl-N-((6-methyl-4-(methylthio)-2-oxo-1,2-dihydropyridin-3-yl)methyl)-1H-indole-3-carboxamide]	< 10	< 0.5			
CSc1cc(C)[nH]c(=O)c1CNC(=O)c1c(C)n([C@H](C)C2CCN(CC(C)(C)O)CC2)c2ccccc12 [Example 11, (R)-1-(1-(1-(2-hydroxy-2-methylpropyl)piperidin-4-yl)ethyl)-2-methyl-N-((6-methyl-4-(methylthio)-2-oxo-1,2-dihydropyridin-3-yl)methyl)-1H-indole-3-carboxamide]	10 to 100			< 0.5	
CSc1cc(C)[nH]c(=O)c1CNC(=O)c1c(C)n([C@H](C)C2CCC(N3CC(C#N)C3)CC2)c2ccccc12 (single isomer, unassigned) [138 (isomer 2)]			10 to 100	< 0.5	
CSc1cc(C)[nH]c(=O)c1CNC(=O)c1c(C)n([C@H](C)C2OCC(N3CC(C)(C)C3)CO2)c2ccccc12 (single isomer, unassigned) [78 (isomer 2)]			> 100	> 5	
CSc1cc(C)[nH]c(=O)c1CNC(=O)c1c(C)n([C@H](C)C2CCC(N3CCC(F)(F)C3)CC2)c2ccccc12 (stereo partly drawn) [Example 95, 1-((R)-1-(4-(3,3-difluoropyrrolidin-1-yl)cyclohexyl)ethyl)-2-methyl-N-((6-methyl-4-(methylthio)-2-oxo-1,2-dihydropyridin-3-yl)methyl)-1H-indole-3-carboxamide]	< 10	< 0.5			
CSc1cc(C)[nH]c(=O)c1CNC(=O)c1c(C)n([C@H](C)C2CCC(OC3COC3)CC2)c2ccccc12 (single isomer, unassigned) [137 (isomer 1)]	< 10			< 0.5	
